US20240307345A1, “R-MDMA and S-MDMA TO ASSIST PSYCHOTHERAPY” (Universitatsspital Basel, priority 2022, published 2024)
Entries after “also recorded” stand apart in the source; their conditions may differ.

What was measured:
healthy subjects [1] = assay: Alteration of mind and mystical-type effects on 5D-ASC and MEQ questionnaires; format: in vivo, human; details: for acute mystical-type experiences on the 5D-ASC scale: 24 subjects
Method: (§1) Study design: The present study compares the acute subjective, physiological and endocrine effects of S-MDMA (125 mg), R-MDMA (125 and 250 mg), MDMA (125 mg) using a placebo-controlled double-blind 5-period cross-over design in 24 healthy subjects. Conditions are 1.) R-MDMA 125 mg, 2). R-MDMA 250 mg, 3) S-MDMA 125 mg, 4) MDMA 125 mg, 5) placebo. Treatment order is counterbalanced. Washout periods between substance administrations are at least 10 days. Study days include a 10-hour study session with a subsequent single measurement (short visit) the next morning (24 hours after drug administration).
(§2) Psychometric assessments: Visual Analog Scale (VAS): VASs is repeatedly used to assess subjective alterations in consciousness over time. Single scales are presented as 100 mm horizontal lines marked with “not at all” on the left and “extremely” on the right. The following VAS items are used: “any drug effect”, “good drug effect”, “bad drug effect”, “stimulated”, “liking”, “happy”, “content”, “talkative”, “open”, “trust”, “feeling close to others”, “anxiety”, “alteration of vision”, “alterations of hearing”, “sounds seem to influence what I see”, “alteration of sense of time”, “the boundaries between myself and my surroundings seem to blur”, “want to be with other people”, and “want to be alone”. Scales are administered before and repeatedly after substance administration and take approximately 2 minutes to fill out. The maximal ratings (Emax, 0-100) and areas under the effect-time curve (AUEC) are defined for each VAS and Emax and AUEC values compared between treatments using analysis of variance. 5-Dimensions of Altered States of Consciousness (5D-ASC): The 5 Dimensions of Altered States of Consciousness (5D-ASC) Scale is a questionnaire containing visual analog scales for 94 items (Studerus et al., 2010). The instrument contains five scales assessing mood, anxiety, derealization, depersonalization, changes in perception, auditory alterations, and reduced vigilance. The scale is well-validated (Studerus et al., 2010) and used internationally to evaluate effects of many other psychoactive substances. The overall psychedelic experience is reflected by the total […] score. Each item of the scale is scored on a 0-100 mm VAS. The attribution of the individual items to the subscales of the 5D-ASC is analyzed according to (Studerus et al., 2010). The 5D-ASC scale is administered once at the end of the session and subjects are instructed to retrospectively rate peak alterations that have been experienced during the study session. Adiective Mood Rating Scale (AMRS): The Adjective Mood Rating Scale (AMRS or EWL60S) is a 60-item Likert scale that allows repeated assessment of mood in 6 dimensions: Activation, inactivation, well-being, anxiety/depressed mood, extra- and introversion, and emotional excitability. The German EWL60S version is used. The AMRS consists of subscales measuring “activation,” “positive mood,” “extraversion,” “introversion,” “inactivation,” and “emotional excitability. The scale has previously been used to evaluate effects of many other psychoactive substances. Emax and AUEC scores will be defined for each subscale and compared between treatments using analysis of variance. The AMRS is administered repeatedly throughout the study session and once 3 days after each session. States of Consciousness Questionnaire (SCQ): In the SCQ, 100-items are rated on a six-point scale. Forty-three items embedded into this questionnaire comprise the Mystical Experience Questionnaire (MEQ) (MacLean et al., 2011) which is sensitive to the effects of psychedelic substances such as LSD. […]

healthy subjects [2] = assay: Effects on mood on the Adjective Mood Rating Scale (AMRS); format: in vivo, human
Method: as §1, §2

healthy subjects [3] = assay: Autonomic effects (blood pressure, heart rate, body temperature); format: in vivo, human
Method: as §1
Autonomic measures: Blood pressure, heart rate, and body temperature are recorded at baseline and repeatedly throughout the session. Blood pressure (systolic and diastolic) and heart rate are measured with an automatic oscillometric device. Body temperature is measured with an ear thermometer. Emax is determined for each of the measures and for each study session. These Emax values are then compared between drug conditions using analysis of variance.

healthy subjects [4] = assay: Adverse effects (List of Complaints); format: in vivo, human; details: for adverse effects 24 to 72 hours after substance administration: 125 mg, compared with placebo
Method: as §1
Adverse effects (list of complaints): The list of complaints (LC) consists of 66 items offering a global score measuring physical and general discomfort (Zerssen, 1976). The LC is administered before (baseline), at the end of the session to cover effects from 0-9 hours and 24 hours after substance administration to cover aftereffects from 9-24 hours. To assess adverse effects after 24 hours, subjects fill out an additional LC 3 days after the test session, covering adverse effects from 24-72 hours. Subjects are additionally be asked to report any adverse events during the sessions or/and between study sessions as assessed at the beginning of the next session and at the EOS visit. Global LC scores are summed up and compared between treatments using analysis of variance.

healthy subjects [5] = assay: Connectedness subscale of the PES questionnaire; format: in vivo, human
healthy subjects [6] = assay: Clinical cross-over study, overall comparison of the substances; format: in vivo, human; details: for dose of more equivalent strength to 125 mg (±)-MDMA: based on the results of the present study; for acute subjective effects and adverse effects: conclusion over the doses tested
Method: as §1

[7] = mice; cited from earlier work
animals = details: cited from earlier work
serotonin = details: rat, in vivo; cited from earlier work
[8] = administered repeatedly at high doses; cited from earlier work
rhesus monkeys = details: indicative of abuse-liability; cited from earlier work
rodents = details: relative to racemic MDMA; cited from earlier work
mice [9] = details: cited from earlier work
[10] = system: dopamine (DA), norepinephrine (NE), serotonin (5-HT), and oxytocin; details: preclinical research; cited from earlier work
humans = details: earlier human study; R-MDMA doses up to 200 mg; cited from earlier work
mice [11] = details: cited from earlier work; remark: listed apart in the source
prolactin (PRL) = details: preclinical research; cited from earlier work
[12] = 125 mg, compared with placebo (and 125 mg R-MDMA)

CN[C@@H](C)Cc1ccc2c(c1)OCO2 [S-MDMA, S(+)-MDMA]
acute mystical-type experiences on the 5D-ASC scale (healthy subjects [1]; 125 mg): comparable effects with no significant differences | psychedelic effects on the 5D-ASC and the MEQ questionnaires (healthy subjects [1]; [12]): comparable and overall greater psychedelic effects | effects on the AMRS (healthy subjects [2]; 125 mg): comparable effects | AMRS “Emotional excitation” (healthy subjects [2]; 125 mg S-MDMA versus both doses of R-MDMA): more | body temperature (healthy subjects [3]; 125 mg): increased similarly; also recorded: increased body temperature only moderately | increases in blood pressure (healthy subjects [3]; 125 mg S-MDMA versus (±)-MDMA and both doses of R-MDMA): higher increases | heart rate (healthy subjects [3]; 125 mg S-MDMA versus the other substance conditions): only significantly higher compared with 125 mg of R-MDMA | heart rate (healthy subjects [3]; 125 mg, versus placebo): increase heart rate comparably and more than with placebo | adverse effects 24 to 72 hours after substance administration (healthy subjects [4]): only increased; also recorded: increased number of adverse effects | ratings of connectedness, difference between conditions (healthy subjects [5]; 125 mg): no difference | dose of more equivalent strength to 125 mg (±)-MDMA (healthy subjects [6]): 100 mg | acute subjective effects and adverse effects (healthy subjects [6]): overall comparable | enantiomer converted to the other enantiomer after administration [7]: 9.9% | hyperthermia (animals): induced hyperthermia | depleting serotonin (serotonin): more effective | neurotoxicity [8]: more neurotoxic than R-MDMA | reinstatement of amphetamine responding (rhesus monkeys): reinstated amphetamine responding | potency for locomotor stimulant effects (rodents): mostly equipotent to racemic MDMA | lethal doses (mice [9]): similar | release of dopamine (DA), norepinephrine (NE), serotonin (5-HT), and oxytocin [10]: mainly releases | activity in humans (humans): more active than the R-enantiomer

CN[C@H](C)Cc1ccc2c(c1)OCO2 [R-MDMA, R(−)-MDMA]
acute mystical-type experiences on the 5D-ASC scale (healthy subjects [1]; 125 mg): only significantly induced mystical-type effects on the 5D-ASC total score and the “Reductions of vigilance” scale | psychedelic effects on the 5D-ASC and the MEQ questionnaires (healthy subjects [1]; [12]): only significantly induced the 5D-ASC total score and the dimension “Reductions of vigilance” on the 5D-ASC and “positive mood”, “Ineffability” and the MEQ30 total score | acute mystical-type experiences on the 5D-ASC scale (healthy subjects [1]; 250 mg): comparable effects with no significant differences | psychedelic effects on the 5D-ASC and the MEQ questionnaires (healthy subjects [1]; 250 mg, compared with placebo and 125 mg R-MDMA): comparable and overall greater psychedelic effects | effects on the AMRS (healthy subjects [2]; 125 mg): comparable effects | AMRS “Extraversion” (healthy subjects [2]; 125 mg R-MDMA versus (±)-MDMA and S-MDMA): less | effects on the AMRS (healthy subjects [2]; 250 mg): comparable effects | AMRS “Introversion” (healthy subjects [2]; 250 mg R-MDMA versus (±)-MDMA): significant more | body temperature (healthy subjects [3]; 125 mg): did not increase body temperature significantly compared to placebo | body temperature (healthy subjects [3]; 250 mg): increased similarly; also recorded: increased body temperature as much as (±)-MDMA and S-MDMA; also recorded: increased body temperature only moderately | heart rate (healthy subjects [3]; 250 mg, versus placebo): increase heart rate comparably and more than with placebo | adverse effects 24 to 72 hours after substance administration (healthy subjects [4]): only increased; also recorded: increased number of adverse effects | overall adverse effects (healthy subjects [4]; R-MDMA versus (±)-MDMA): it does not seem that R-MDMA produces overall less adverse effects | ratings of connectedness, difference between conditions (healthy subjects [5]; 250 mg): no difference | cardio and psychostimulant effects / properties (healthy subjects [6]; R-MDMA (125 and 250 mg) compared with S-MDMA): lower cardio and psychostimulant effects; also recorded: less cardiostimulant and psychostimulant properties | dose of more equivalent strength to 125 mg (±)-MDMA (healthy subjects [6]): 300 mg | acute subjective effects and adverse effects (healthy subjects [6]): overall comparable | effect on social interaction and connectedness (healthy subjects [6]; within the dose range tested (125 and 250 mg)): less pronounced | enantiomer converted to the other enantiomer after administration [7]: 3.5% | peak effects on prosocial behaviors (mice [11]): greater peak effects than S-MDMA | potency for locomotor stimulant effects (rodents): clearly less potent than racemic MDMA | release of prolactin (PRL) (prolactin (PRL)): release prolactin
